Among the data in publication PMC8955854, “The Peptide Hormone CNMa Influences Egg Production in the Mosquito Aedes aegypti” (Insects, 2022) are EC50 values, retold here.

The structures appear in SMILES notation. Positions of bridges follow the written chain, without caps; N, C: chain ends. Residues, ends and D or L forms follow the SMILES beside them.

For assay [1], the target named is AeCNMaR-1a (AAEL024199) (Aedes aegypti, UniProt A0A6I8U3V2). Briefly: Receptor activation, aequorin luminescence in CHO-K1 aeq cells expressing AeCNMaR-1a. Format: cell-based. The text has this: The CNMa peptide was synthesized and HPLC purified (>90% purity) by Royobiotechs (Shanghai, China) based on the published sequence of the AeCNMa peptide sequence. Both the amidated (YMSLCHFKLCNMa) and the non-amidated (YMSLCHFKLCNM) were produced with a disulfide bridge between cysteines 5 and 10. The complete coding sequence of the two putative Ae. aegypti CNMa receptors (VectorBase genes AAEL024199 and AAEL018316, which we henceforth refer to as AeCNMaR-1a and AeCNMaR-1b, respectively) were commercially synthesized (Integrated DNA Technologies) and subsequently subcloned into a pcDNA3.1+ mammalian expression vector [24]. A Chinese hamster ovary cell line stably expressing the calcium-dependent bioluminescent protein aequorin (CHO-K1 aeq) was grown in Dulbecco’s modified eagles medium: nutrient F12 (DMEM:F12) media containing 10% heat-inactivated fetal bovine serum (FBS; Wisent, St. Bruno, QC, Canada), 200 μg/mL geneticin, and an antimycotic-antibiotic mixture as described previously. When cells reached 80–90% confluency, they were transfected using Lipofectamine 3000 transfection reagent following manufacturer recommendations (Life Technologies, Burlington, ON, Canada) to transiently express a mammalian construct in pcDNA3.1+ containing either of the two candidate CNMa receptors or mCherry (pcDNA3.1+ mCherry was a gift from Scott Gradia, Addgene plasmid #30125), the latter of which served as a negative control for the receptor functional assay. After 48 h following transfection, CHO-K1 aeq cells were harvested by dislodging from culture flasks using Dulbecco’s PBS containing EDTA and subsequently resuspended in receptor assay media.
Sequence of AeCNMaR-1a (AAEL024199) (A0A6I8U3V2 entry or part of it): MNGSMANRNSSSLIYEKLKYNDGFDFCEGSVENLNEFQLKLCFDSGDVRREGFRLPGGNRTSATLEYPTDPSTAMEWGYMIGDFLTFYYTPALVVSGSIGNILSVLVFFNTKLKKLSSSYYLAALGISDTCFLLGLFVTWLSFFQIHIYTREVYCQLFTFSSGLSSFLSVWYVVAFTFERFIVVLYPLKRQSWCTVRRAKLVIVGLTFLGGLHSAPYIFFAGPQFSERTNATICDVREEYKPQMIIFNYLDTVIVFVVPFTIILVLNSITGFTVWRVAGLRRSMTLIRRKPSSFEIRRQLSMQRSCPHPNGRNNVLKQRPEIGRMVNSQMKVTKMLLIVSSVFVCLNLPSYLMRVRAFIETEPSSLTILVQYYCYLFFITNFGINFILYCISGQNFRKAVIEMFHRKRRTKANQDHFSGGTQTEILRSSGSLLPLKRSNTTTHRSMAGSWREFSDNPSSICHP
Other Ae. aegypti peptides used in this study included “capability” (CAPA)-1 (GPTVGLFAFPRV-NH2), CAPA-2 (pQGLVPFPRV-NH2), AedaeCAPA-pyrokinin (PK) 1 (AGNSGANSGMWFGPRL-NH2), adipokinetic/corazonin-like peptide (ACP; pQVTFSRDWNA-NH2), adipokinetic hormone (AKH) (pQLTFTPSW-NH2), and corazonin (CRZ; pQTFQYSRGWTN-NH2). Serial dilutions of the peptide stocks were prepared in bovine serum albumin (BSA) assay media (DMEM:F12 media + 0.1% BSA + 1× antibiotic-antimycotic) to test concentrations ranging from 10 pM to 50 μM. Single concentrations of the various peptides were loaded into individual wells of white 96-well luminescence plates (Greiner Bio-One, Frickenhausen, Germany) with each peptide concentration tested in quadruplicate. CHO-K1 aeq cells expressing either of the two AeCNMa receptors or mCherry were prepared for the functional assay, as described above, and injected into each well of the 96-well luminescence plates by an automated injector unit integrated with the Synergy 2 Multi-Mode Microplate Reader (BioTek, Winooski, VT, USA). The kinetic luminescent response was measured for 10 s immediately following the application of the cells into the wells containing the different peptide treatments or the negative (i.e., BSA media alone) or positive (i.e., 50 μM ATP) controls as described previously. Data was assembled in Microsoft Excel and then analyzed in GraphPad Prism 7.02 (GraphPad Software, San Diego, CA, USA) where the dose–response curves from multiple biological replicates were used to determine the half maximal effective concentrations (EC50).

In assay [2] the target is AeCNMaR-1b (AAEL018316) (Aedes aegypti, UniProt A0A1S4G7J8). Description: Receptor activation, aequorin luminescence in CHO-K1 aeq cells expressing AeCNMaR-1b. The assay is classed as cell-based. The text has this:
The CNMa peptide was synthesized and HPLC purified (>90% purity) by Royobiotechs (Shanghai, China) based on the published sequence of the AeCNMa peptide sequence. Both the amidated (YMSLCHFKLCNMa) and the non-amidated (YMSLCHFKLCNM) were produced with a disulfide bridge between cysteines 5 and 10. The complete coding sequence of the two putative Ae. aegypti CNMa receptors (VectorBase genes AAEL024199 and AAEL018316, which we henceforth refer to as AeCNMaR-1a and AeCNMaR-1b, respectively) were commercially synthesized (Integrated DNA Technologies) and subsequently subcloned into a pcDNA3.1+ mammalian expression vector [24]. A Chinese hamster ovary cell line stably expressing the calcium-dependent bioluminescent protein aequorin (CHO-K1 aeq) was grown in Dulbecco’s modified eagles medium: nutrient F12 (DMEM:F12) media containing 10% heat-inactivated fetal bovine serum (FBS; Wisent, St. Bruno, QC, Canada), 200 μg/mL geneticin, and an antimycotic-antibiotic mixture as described previously. […]
Other Ae. aegypti peptides used in this study included “capability” (CAPA)-1 (GPTVGLFAFPRV-NH2), CAPA-2 (pQGLVPFPRV-NH2), AedaeCAPA-pyrokinin (PK) 1 (AGNSGANSGMWFGPRL-NH2), adipokinetic/corazonin-like peptide (ACP; pQVTFSRDWNA-NH2), adipokinetic hormone (AKH) (pQLTFTPSW-NH2), and corazonin (CRZ; pQTFQYSRGWTN-NH2). […] Single concentrations of the various peptides were loaded into individual wells of white 96-well luminescence plates (Greiner Bio-One, Frickenhausen, Germany) with each peptide concentration tested in quadruplicate. CHO-K1 aeq cells expressing either of the two AeCNMa receptors or mCherry were prepared for the functional assay, as described above, and injected into each well of the 96-well luminescence plates by an automated injector unit integrated with the Synergy 2 Multi-Mode Microplate Reader (BioTek, Winooski, VT, USA). The kinetic luminescent response was measured for 10 s immediately following the application of the cells into the wells containing the different peptide treatments or the negative (i.e., BSA media alone) or positive (i.e., 50 μM ATP) controls as described previously. Data was assembled in Microsoft Excel and then analyzed in GraphPad Prism 7.02 (GraphPad Software, San Diego, CA, USA) where the dose–response curves from multiple biological replicates were used to determine the half maximal effective concentrations (EC50).

Sequence of AeCNMaR-1b (AAEL018316) (A0A1S4G7J8 entry or part of it): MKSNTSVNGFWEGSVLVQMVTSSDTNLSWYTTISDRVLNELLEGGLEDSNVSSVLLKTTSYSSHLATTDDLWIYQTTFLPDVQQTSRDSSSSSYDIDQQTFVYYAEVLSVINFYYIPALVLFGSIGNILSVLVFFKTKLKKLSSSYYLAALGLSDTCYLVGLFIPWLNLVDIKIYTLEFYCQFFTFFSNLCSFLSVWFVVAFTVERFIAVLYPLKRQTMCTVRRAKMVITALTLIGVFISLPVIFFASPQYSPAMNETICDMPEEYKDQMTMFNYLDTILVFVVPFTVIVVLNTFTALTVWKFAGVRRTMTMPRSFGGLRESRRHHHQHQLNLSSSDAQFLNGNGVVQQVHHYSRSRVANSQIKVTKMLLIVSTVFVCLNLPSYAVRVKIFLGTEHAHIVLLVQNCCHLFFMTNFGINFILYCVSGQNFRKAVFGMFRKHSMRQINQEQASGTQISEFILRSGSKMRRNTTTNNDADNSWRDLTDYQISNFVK

As usually defined, the EC50 is the concentration that produces a half-maximal response. For the molecule `CSCC[C@H](NC(=O)[C@H](CC(N)=O)NC(=O)[C@@H]1CSSC[C@H](NC(=O)[C@H](CC(C)C)NC(=O)[C@H](CO)NC(=O)[C@H](CCSC)NC(=O)[C@@H](N)Cc2ccc(O)cc2)C(=O)N[C@@H](Cc2c[nH]cn2)C(=O)N[C@@H](Cc2ccccc2)C(=O)N[C@@H](CCCCN)C(=O)N[C@@H](CC(C)C)C(=O)N1)C(=O)O` [AeCNM, YMSLCHFKLCNM] (H-YMSLCHFKLCNM-OH; disulfide 5-10), the EC50 in assay [1] worked out at 46.3 nM; in assay [2] it was 125 nM.
